For series [1], the target named is T1, α4β7 (adhesion of RPMI cells to CS-1) (Homo sapiens, UniProt P13612+P26010).
T1 construct: endogenous in cells
T1 sequence (P13612 34-1032): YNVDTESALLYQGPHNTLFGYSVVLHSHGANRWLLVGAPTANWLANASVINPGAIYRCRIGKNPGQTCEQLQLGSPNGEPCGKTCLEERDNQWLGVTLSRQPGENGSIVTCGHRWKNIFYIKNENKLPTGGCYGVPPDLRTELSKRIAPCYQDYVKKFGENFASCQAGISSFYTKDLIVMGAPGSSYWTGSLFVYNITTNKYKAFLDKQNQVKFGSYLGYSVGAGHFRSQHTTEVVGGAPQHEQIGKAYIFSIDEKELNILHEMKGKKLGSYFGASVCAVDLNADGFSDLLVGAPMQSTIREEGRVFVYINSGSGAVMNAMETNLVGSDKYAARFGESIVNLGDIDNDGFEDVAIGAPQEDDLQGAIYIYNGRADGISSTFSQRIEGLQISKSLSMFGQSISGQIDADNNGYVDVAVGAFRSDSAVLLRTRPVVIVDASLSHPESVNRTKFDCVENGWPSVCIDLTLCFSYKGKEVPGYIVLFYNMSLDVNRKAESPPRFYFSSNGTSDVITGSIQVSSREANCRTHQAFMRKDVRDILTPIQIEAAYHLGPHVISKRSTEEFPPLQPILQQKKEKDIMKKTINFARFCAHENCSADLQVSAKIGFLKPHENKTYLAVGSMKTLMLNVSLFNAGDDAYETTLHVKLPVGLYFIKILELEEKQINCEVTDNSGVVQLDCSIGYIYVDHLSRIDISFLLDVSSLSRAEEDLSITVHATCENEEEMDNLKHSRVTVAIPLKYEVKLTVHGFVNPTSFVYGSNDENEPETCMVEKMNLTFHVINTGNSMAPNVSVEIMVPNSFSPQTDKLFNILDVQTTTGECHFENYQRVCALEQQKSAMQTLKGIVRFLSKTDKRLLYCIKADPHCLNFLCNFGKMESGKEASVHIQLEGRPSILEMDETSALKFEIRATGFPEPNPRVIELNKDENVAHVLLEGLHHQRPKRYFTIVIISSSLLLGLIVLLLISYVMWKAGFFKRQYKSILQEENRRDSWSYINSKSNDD
T1 sequence (P26010 20-798): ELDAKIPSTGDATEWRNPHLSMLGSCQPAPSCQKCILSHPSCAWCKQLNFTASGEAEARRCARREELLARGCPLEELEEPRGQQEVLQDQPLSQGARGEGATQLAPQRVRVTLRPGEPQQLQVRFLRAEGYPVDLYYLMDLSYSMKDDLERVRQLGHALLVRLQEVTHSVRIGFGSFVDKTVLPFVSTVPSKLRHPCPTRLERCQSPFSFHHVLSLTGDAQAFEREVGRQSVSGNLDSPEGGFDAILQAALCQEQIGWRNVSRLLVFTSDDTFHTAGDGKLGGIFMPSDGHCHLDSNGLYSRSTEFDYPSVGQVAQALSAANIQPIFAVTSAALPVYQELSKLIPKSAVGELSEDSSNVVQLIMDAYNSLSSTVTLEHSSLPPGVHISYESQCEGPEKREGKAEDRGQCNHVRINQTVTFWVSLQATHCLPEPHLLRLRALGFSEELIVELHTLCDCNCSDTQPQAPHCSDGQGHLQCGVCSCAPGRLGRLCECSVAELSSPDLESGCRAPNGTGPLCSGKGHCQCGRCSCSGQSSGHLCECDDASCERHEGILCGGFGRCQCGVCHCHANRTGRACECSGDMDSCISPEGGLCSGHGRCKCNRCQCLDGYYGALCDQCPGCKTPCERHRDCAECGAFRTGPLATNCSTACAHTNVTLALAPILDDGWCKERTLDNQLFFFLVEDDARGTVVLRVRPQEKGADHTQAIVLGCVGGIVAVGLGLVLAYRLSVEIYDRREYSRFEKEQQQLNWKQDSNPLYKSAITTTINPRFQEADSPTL
In words: RPMI-CS-1 cell adhesion assay. The format is cell-based. The settings on record: adhesion of RPMI B-cell line (expresses α4β7) to CS-1 peptide coated microwells; read-out: RPMI-CS-1 IC50 value range.

By pIC50 is commonly meant −log10 of the IC50, conventionally taken in molar units. Broadly, the melting point is the temperature of the solid-liquid transition.

Structures are written as SMILES. pIC50: −log10 of the molar value.

`COc1cccc(OC)c1-c1ccc(CC[C@H](NC(=O)c2c(Cl)cccc2Cl)C(=O)O)cc1` [Example 295, N-(2,6-Dichlorobenzoyl)-4-(2,6-dimethoxyphenyl)-L-homophenylalanine] registered a melting point of 105 to 107 °C. Also, the pIC50 in series [1] is 5.30 to 6.00.
Regarding `O=C(N[C@@H](Cc1ccc(-c2cccc3c2OCC3)cc1)C(=O)O)c1c(Cl)cccc1Cl` [Example 327], the melting point was 215 to 216 °C. In series [1], the negative-log IC50 (pIC50) is > 6.52.
For `COc1cccc(OC)c1-c1ccc(C[C@H](NC(=O)c2c(Cl)cc(O)cc2Cl)C(=O)O)cc1` [Example 208], in that order: 252 to 253 °C and > 6.52.
For `CC(=O)c1cc(C[C@H](NC(=O)c2c(Cl)cccc2Cl)C(=O)O)ccc1-c1ccccc1` [Example 72, 3-Acetyl-N-(2,6-dichlorobenzoyl)-4-phenyl-L-phenylalanine], the melting point lay in the range of 109 to 111 °C. For the same compound, the pIC50 in series [1] is 6.00 to 6.52.
In turn, `CON=C(C)c1cc(C[C@H](NC(=O)c2c(Cl)cccc2Cl)C(=O)O)ccc1-c1ccccc1OC` [Example 352, N-(2,6-Dichlorobenzoyl)-3-[1-(methoxyimino)ethyl]-4-(2-methoxyphenyl)-L-phenylalanine] had a melting point of 106.8 °C. For the same compound, in series [1], the pIC50 is 6.00 to 6.52.
`COc1cc(C(=O)NC(C)C)cc(OC)c1-c1ccc(C[C@H](NC(=O)c2c(Cl)cccc2Cl)C(=O)O)cc1` [Example 168] had a melting point of 261 to 262 °C. The negative-log IC50 (pIC50) in series [1] was > 6.52.
On to `COc1ccccc1-c1ccc(C[C@H](NC(=O)c2c(Cl)cccc2Cl)C(=O)O)cc1OC` [Example 75, N-(2,6-Dichlorobenzoyl)-3-methoxy-4-(2-methoxyphenyl)-L-phenylalanine], for which the melting point was 100 to 102 °C. For the same compound, the pIC50 in series [1] was > 6.52.
For `CCC(=O)c1cc(C[C@H](NC(=O)c2c(Cl)cccc2Cl)C(=O)O)ccc1-c1ccccc1OC` [Example 337], in that order: 118 to 119 °C and > 6.52.
For `COc1cccc(OC)c1-c1ccc(C[C@H](NC(=O)c2c(Cl)ccc(Br)c2Cl)C(=O)O)cc1` [Example 331, N-(2,6-Dichloro-3-bromobenzoyl)-4-(2,6-dimethoxyphenyl)-L-phenylalanine], in that order: 234.8 °C and > 6.52.
For `CS(=O)(=O)Nc1ccc(C(=O)N[C@@H](Cc2ccc(-c3ccccc3C(F)(F)F)cc2)C(=O)O)c(Cl)c1` [Example 335, N-[2-Chloro-4-(methansulfonylamino)benzoyl]-4-[2-(trifluoromethyl)phenyl]-L-phenylalanine], the melting point was found to be 114 °C. Besides, in series [1], the pIC50 was 6.00 to 6.52.
For `COc1cccc(OC)c1-c1ccc(C[C@H](NC(=O)c2c(Cl)cccc2Cl)C(=O)O)s1` [Example 294, N-(2,6-Dichlorobenzoyl)-3-[5-(2,6-dimethoxyphenyl)-2-thienyl]-L-alanine], in that order: 134 °C (dec.) and 5.30 to 6.00.
For `Cc1cccc(C)c1-c1ccc(C[C@H](NC(=O)c2c(Cl)cccc2Cl)C(=O)O)cc1` [Example 145], in that order: 200 to 201 °C and 5.30 to 6.00.
For `C=CCN(C(=O)OC(C)(C)C)c1cc(OC)c(-c2ccc(C[C@H](NC(=O)c3c(Cl)cccc3Cl)C(=O)O)cc2)c(OC)c1` [Example 155, N-(2,6-Dichlorobenzoyl)-4-[4-(N-allyl-N-tert-butoxycarbonylamino)-2,6-dimethoxyphenyl]-L-phenylalanine], in that order: 138 to 139 °C and > 6.52.
In turn, `COc1ccccc1-c1ccc(C[C@@H](NC(=O)c2c(Cl)cccc2Cl)C(=O)O)cc1` [Example 5, N-(2,6-Dichlorobenzoyl)-4-(2-methoxyphenyl)-D-phenylalanine] yielded a melting point of 195 °C. Besides, the pIC50 in series [1] was 5.30 to 6.00.
Regarding `CNC(=O)Nc1cc(OC)c(-c2ccc(C[C@H](NC(=O)c3c(Cl)cccc3Cl)C(=O)O)cc2)c(OC)c1` [Example 160, N-(2,6-Dichlorobenzoyl)-4-[4-(3-methylureido)-2,6-dimethoxyphenyl]-L-phenylalanine], the melting point fell in the range of 206 to 207 °C. Also, the negative logarithm of the IC50 (pIC50) in series [1] is > 6.52.
Regarding `CCCCC(=O)c1cc(C[C@H](NC(=O)c2c(Cl)cccc2Cl)C(=O)O)ccc1-c1ccccc1OC` [Example 338], the melting point amounted to 117.6 °C. In series [1], the pIC50 was > 6.52.
Consider `COc1cc(CN2CC[S+]([O-])CC2)cc(OC)c1-c1ccc(C[C@H](NC(=O)c2c(Cl)cccc2Cl)C(=O)O)cc1` [Example 263B, N-(2,6-Dichlorobenzoyl)-4-[2,6-dimethoxy-4-(thiomorpholinomethyl)phenyl]-L-phenylalanine S-oxide], for which the melting point is 162.8 °C. In addition, the pIC50 in series [1] is > 6.52.
For `CN(C)CCOc1cccc(O)c1-c1ccc(C[C@H](NC(=O)c2c(Cl)cccc2Cl)C(=O)O)cc1` [Example 232], in that order: 168 to 169 °C and > 6.52.
In the case of `C=CCNc1cc(OC)c(-c2ccc(C[C@H](NC(=O)c3c(Cl)cccc3Cl)C(=O)O)cc2)c(OC)c1` [Example 156, N-(2,6-Dichlorobenzoyl)-4-(4-allylamino-2,6-dimethoxyphenyl)-L-phenylalanine], the melting point was 262 to 263 °C (dec.). Further, the pIC50 in series [1] is > 6.52.
On the same counts, the results for `COc1cc(CCN2CCCCC2)cc(OC)c1-c1ccc(C[C@H](NC(=O)c2c(Cl)cccc2Cl)C(=O)O)cc1` [Example 265, N-(2,6-Dichlorobenzoyl)-4-[2,6-dimethoxy-4-(2-piperidinoethyl)phenyl]-L-phenylalanine] are 194.9 °C and > 6.52.
For `O=C(N[C@@H](Cc1ccc(-c2c(C(F)(F)F)cccc2C(F)(F)F)cc1)C(=O)O)c1c(Cl)cccc1Cl` [Example 146], in that order: 259 to 260 °C and 6.00 to 6.52.
On the same counts, the results for `COc1ccc(OC)c(-c2ccc(C[C@H](NC(=O)c3c(Cl)cccc3Cl)C(=O)O)cc2C(C)O)c1OC` (stereo partly drawn) [Example 340] are 121 to 123 °C and > 6.52.
For the compound `COc1cc(C(=O)NCc2ccccc2)cc(OC)c1-c1ccc(C[C@H](NC(=O)c2c(Cl)cccc2Cl)C(=O)O)cc1` [Example 167], the melting point lay in the range of 153 to 154 °C. Moreover, the pIC50 in series [1] is > 6.52.
On the same counts, the results for `COc1cc(N)cc(OC)c1-c1ccc(C[C@H](NC(=O)c2c(Cl)cccc2Cl)C(=O)O)cc1` [Example 157, N-(2,6-Dichlorobenzoyl)-4-(4-amino-2,6-dimethoxyphenyl)-L-phenylalanine] are 221 to 222 °C and > 6.52.
For `COc1ccc(F)c(OC)c1-c1ccc(C[C@H](NC(=O)c2c(Cl)cccc2Cl)C(=O)O)cc1` [Example 153A, N-(2,6-Dichlorobenzoyl)-4-(2,6-dimethoxy-3-fluorophenyl)-L-phenylalanine], in that order: 228 to 229 °C and > 6.52.
For `COc1cc(C(=O)N(C)C)cc(OC)c1-c1ccc(C[C@H](NC(=O)c2c(Cl)cccc2Cl)C(=O)O)cc1` [Example 166], in that order: 219 to 221 °C and > 6.52.
In turn, `CCCCCCC(=O)c1cc(C[C@H](NC(=O)c2c(Cl)cccc2Cl)C(=O)O)ccc1-c1ccccc1OC` [Example 339] came in with a melting point of 86 to 88 °C. Further, the negative logarithm of the IC50 (pIC50) in series [1] was > 6.52.

Values taken from patent publication US6855843B2, “Inhibitors of α4 mediated cell adhesion” (Tanabe Seiyaku Co., Ltd., priority 1998, dated 2005).
